From patent CN108992440A, “去甲斑蝥素在制备治疗破骨细胞过度激活相关疾病药物中的应用” (priority 2018, dated 2018)

Experiments:
Assay type in all cases: cell-based, mouse
[1] = MTT assay of the effect of NCTD on viability of bone-marrow-derived macrophages; conditions: mouse, bone marrow macrophages; MTT, BMMs, 48 h; read-out: concentration from which BMM activity begins to be affected
BMM cells [BMMs] [2] = experiment: as above
osteoclasts [破骨细胞] [3] = experiment: TRAP staining: RANKL-induced osteoclast differentiation from BMMs; conditions: RANKL induction 5 days, 0, 1, 2.5, 5, 10 μM NCTD
osteoclasts [破骨细胞] [4] = experiment: TRAP staining: stage of osteoclast formation inhibited by NCTD; conditions: 5 μM NCTD
BMM cells [BMMs] [5] = experiment: Annexin V-FITC/PI flow cytometry: apoptosis of BMMs; conditions: BMMs, 0, 2.5, 5, 10 μM NCTD, 48 h
CTSK = experiment: Q-PCR of osteoclast marker gene: CTSK; conditions: RANKL 100 ng/ml, M-CSF 30 ng/ml, 5 days
CTR = experiment: Q-PCR of osteoclast marker gene: CTR; conditions: RANKL 100 ng/ml, M-CSF 30 ng/ml, 5 days
TRAP = experiment: Q-PCR of osteoclast marker gene: TRAP; conditions: RANKL 100 ng/ml, M-CSF 30 ng/ml, 5 days
NFATc1 = experiment: Q-PCR of osteoclast marker gene: NFATc1; conditions: RANKL 100 ng/ml, M-CSF 30 ng/ml, 5 days
c-Fos = experiment: Q-PCR of osteoclast marker gene: c-Fos; conditions: RANKL 100 ng/ml, M-CSF 30 ng/ml, 5 days
[6] = test system: extracellular signal-regulated kinase (ERK) [细胞外信号调节激酶(ERK)]; experiment: Western blot: RANKL-stimulated ERK phosphorylation; conditions: BMMs, RANKL 15 min; 0, 2.5, 5, 10 μM NCTD
p38 kinase [p38激酶] = experiment: Western blot: RANKL-stimulated p38 phosphorylation; conditions: BMMs, RANKL 15 min; 0, 2.5, 5, 10 μM NCTD
[7] = test system: c-Jun N-terminal kinase (JNK) [c-Jun氨基端激酶(JNK)]; experiment: Western blot: JNK (MAPK family); conditions: BMMs
IκBα = IκBα degradation (NF-κB signalling pathway)
[8] = pretreatment (12 h before RANKL)

For `O=C1OC(=O)C2C3CCC(O3)C12` (stereo not shown) [NCTD, 去甲斑蝥素], the MCC at 48 h [1] was 20 µM, the IC50 (BMM cells [BMMs] [2]; Mus musculus, Macrophage, MTT, BMMs, 48 h, 0-320 μM NCTD, GraphPad Prism, read-out: half-inhibitory concentration (IC50) on BMMs) was 59.7 µM and the “toxicity to BMM cells” value (BMM cells [BMMs] [2]; at 10 μM and below) was “无毒性作用”. The “osteoclast formation (osteoclast number and area)” value (osteoclasts [破骨细胞] [3]) was “能够明显抑制破骨细胞的生成,且呈剂量依赖性关系”, the “osteoclast number and area” value (osteoclasts [破骨细胞] [4]; early treatment (first 2 days of induction)) was “能够显著改变破骨细胞数量和面积” and the osteoclast area (osteoclasts [破骨细胞] [4]; late treatment (last 3 days of induction)) was “对破骨细胞面积没有明显影响”. For the same molecule, the osteoclast formation (osteoclasts [破骨细胞] [4]; [8]) was “在一定程度上可抑制破骨细胞形成”, the “osteoclast number and size vs control” value (osteoclasts [破骨细胞] [4]; [8]) was “均有明显差异” and the “inhibition of osteoclast differentiation” value (osteoclasts [破骨细胞] [4]; pretreatment + whole-course treatment) was “对破骨细胞分化抑制最为明显”. The “inhibition of osteoclast differentiation” value (osteoclasts [破骨细胞] [4]; whole-course treatment (5 days)) was “对破骨细胞分化抑制最为明显”, the apoptosis (BMM cells [BMMs] [5]) was “不会引起细胞凋亡” and the CTSK expression (CTSK) was “浓度依赖地抑制”. For the same molecule, the CTR expression (CTR) was “浓度依赖地抑制”, the TRAP expression (TRAP) was “浓度依赖地抑制” and the NFATc1 expression (NFATc1) was “浓度依赖地抑制”. The c-Fos expression (c-Fos) was “浓度依赖地抑制”, the ERK phosphorylation [6] was “明显受到抑制” and the p38 phosphorylation (p38 kinase [p38激酶]) was “明显受到抑制”. For the same molecule, the “inhibition of JNK” value ([7]; RANKL 15 min, 0, 2.5, 5, 10 μM NCTD) was “没有明显抑制作用”, the JNK phosphorylation ([7]; RANKL-stimulated) was “没有影响” and the IκBα degradation (IκBα; BMMs, RANKL-stimulated) was “没有抑制IκBα的降解”. The “RANKL-activated NF-κB signalling pathway” value (IκBα; by IκBα degradation) was “没有明显影响”.
